Where two headings read alike, the source gives them in different places.
What was measured:
[1] = target: T1, TF-VIIa (Homo sapiens, UniProt P08709); assay: TF-VIIa Assay; assay type: biochemical
T1 construct: 2nM recombinant human factor VIIa; purchased American Diagnostica, Greenwich CT; host or cells: soluble TF made in house in E. coli

[2] = target: Human factor Xa (Homo sapiens, UniProt P00742)
[3] = read-out: IC50 or % Inhibition TF-VIIa (30 µM); cells given as a plain number (IC50)
[4] = cells given as a plain number (IC50); read-out: IC50 or % Inhibition TF-VIIa (30 µM)

Human factor Xa, sequence (P00742 235-488 limits assumed): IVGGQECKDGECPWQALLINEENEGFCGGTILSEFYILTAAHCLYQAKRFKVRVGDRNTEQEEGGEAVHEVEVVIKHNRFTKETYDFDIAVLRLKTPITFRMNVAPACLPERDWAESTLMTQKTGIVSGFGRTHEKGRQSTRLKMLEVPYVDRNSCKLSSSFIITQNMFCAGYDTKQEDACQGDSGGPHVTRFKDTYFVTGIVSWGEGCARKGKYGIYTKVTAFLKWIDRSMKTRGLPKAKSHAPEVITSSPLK
Human factor Xa, sequence (P00742 41-179 limits assumed): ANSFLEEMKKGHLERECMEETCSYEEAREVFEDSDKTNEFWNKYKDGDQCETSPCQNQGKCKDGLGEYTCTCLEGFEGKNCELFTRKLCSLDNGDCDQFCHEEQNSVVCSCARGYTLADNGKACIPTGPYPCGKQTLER
T1 sequence (P08709 213-466 limits assumed): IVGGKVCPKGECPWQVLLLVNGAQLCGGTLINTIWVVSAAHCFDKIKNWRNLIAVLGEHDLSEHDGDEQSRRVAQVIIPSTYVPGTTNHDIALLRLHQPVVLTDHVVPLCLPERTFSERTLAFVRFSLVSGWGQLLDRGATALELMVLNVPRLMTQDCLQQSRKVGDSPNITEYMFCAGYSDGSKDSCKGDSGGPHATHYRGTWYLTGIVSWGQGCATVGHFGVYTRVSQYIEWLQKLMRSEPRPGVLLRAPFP
T1 sequence (P08709 61-212 limits assumed): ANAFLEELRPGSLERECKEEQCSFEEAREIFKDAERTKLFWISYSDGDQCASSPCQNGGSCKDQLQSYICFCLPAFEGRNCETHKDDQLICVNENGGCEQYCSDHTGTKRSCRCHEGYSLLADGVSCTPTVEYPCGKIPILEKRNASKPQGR
T1 sequence (P13726 33-251 partner limits assumed): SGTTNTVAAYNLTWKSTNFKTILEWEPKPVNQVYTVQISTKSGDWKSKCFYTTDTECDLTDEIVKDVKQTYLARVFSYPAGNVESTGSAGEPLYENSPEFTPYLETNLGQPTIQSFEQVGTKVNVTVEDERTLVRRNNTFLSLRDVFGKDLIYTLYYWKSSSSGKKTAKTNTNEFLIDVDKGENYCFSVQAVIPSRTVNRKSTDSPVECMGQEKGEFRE

`N=C(N)c1ccc(CNC(=O)Cn2c(-c3ccccc3)c(Cl)nc(NCC(c3ccccc3)c3ccccc3)c2=O)cc1` [1507-09] was tested, and the IC50 [1, 3] was 22.6 µM and the “IC50 or % Inhibition Factor Xa (30 µM)” value [2] was 13%.
For `N=C(N)c1ccc(CNC(=O)Cn2c(-c3ccccc3)c(Cl)nc(NC3CCCc4ccccc43)c2=O)cc1` (stereo not drawn) [1507-16], the IC50 [1, 3] was 5.8 µM and the “IC50 or % Inhibition Factor Xa (30 µM)” value [2] was 18%.
In the case of `N=C(N)c1ccc(CNC(=O)Cn2c(-c3ccccc3)c(Cl)nc(NCCC3=CCCCC3)c2=O)cc1` [1507-17], the IC50 [1, 3] is reported as 27.4 µM and the “IC50 or % Inhibition Factor Xa (30 µM)” value [2] is reported as 16%.
`N=C(N)c1ccc(CNC(=O)Cn2c(-c3ccccc3)c(Cl)nc(NCCCN3CCCC3=O)c2=O)cc1` [1507-19] was tested, and the IC50 [1, 3] was 12.9 µM and the “IC50 or % Inhibition Factor Xa (30 µM)” value [2] was 4%.
For `N=C(N)c1ccc(CNC(=O)Cn2c(-c3ccccc3)c(Cl)nc(NC3CCC3)c2=O)cc1` [1507-21], the IC50 [1, 4] was 0.4 µM and the “IC50 or % Inhibition Factor Xa (30 µM)” value [2] was 23%.
In the case of `N=C(N)c1ccc(CNC(=O)Cn2c(-c3ccccc3)c(Cl)nc(NCc3ccccn3)c2=O)cc1` [1507-24], the “IC50 or % Inhibition TF-VIIa (30 µM)” value [1] is reported as 0% and the “IC50 or % Inhibition Factor Xa (30 µM)” value [2] is reported as 15%.
In the case of `N=C(N)c1ccc(CNC(=O)Cn2c(-c3ccccc3)c(Cl)nc(NC(c3ccccc3)c3ccccc3)c2=O)cc1` [1507-35], the IC50 [1, 3] is reported as 19.9 µM and the “IC50 or % Inhibition Factor Xa (30 µM)” value [2] is reported as 28%.
With `N=C(N)c1ccc(CNC(=O)Cn2c(-c3ccccc3)c(Cl)nc(NCc3cc(C(F)(F)F)cc(C(F)(F)F)c3)c2=O)cc1` [1507-40] the IC50 [1, 3] was 5.7 µM and the “IC50 or % Inhibition Factor Xa (30 µM)” value [2] was 11%.
With `N=C(N)c1ccc(CNC(=O)Cn2c(-c3ccccc3)c(Cl)nc(NCC(F)(F)F)c2=O)cc1` [1507-41] the “IC50 or % Inhibition TF-VIIa (30 µM)” value [1] was 48% and the “IC50 or % Inhibition Factor Xa (30 µM)” value [2] was 17%.
For `N=C(N)c1ccc(CNC(=O)Cn2c(-c3ccccc3)c(Cl)nc(NCCCCc3ccccc3)c2=O)cc1` [1507-43], the IC50 [1, 4] was 4.1 µM and the “IC50 or % Inhibition Factor Xa (30 µM)” value [2] was 21%.
`N=C(N)c1ccc(CNC(=O)Cn2c(-c3ccccc3)c(Cl)nc(NCCc3ccc(Cl)c(Cl)c3)c2=O)cc1` [1507-44] was tested, and the IC50 [1, 3] was 6 µM and the “IC50 or % Inhibition Factor Xa (30 µM)” value [2] was 9%.
In the case of `N=C(N)c1ccc(CNC(=O)Cn2c(-c3ccccc3)c(Cl)nc(NCc3ccc(Cl)cc3)c2=O)cc1` [1507-46], the IC50 [1, 4] is reported as 4.3 µM and the “IC50 or % Inhibition Factor Xa (30 µM)” value [2] is reported as 8%.
With `CN(C)CCCNc1nc(Cl)c(-c2ccccc2)n(CC(=O)NCc2ccc(C(=N)N)cc2)c1=O` [1507-47] the IC50 [1, 4] was 17.6 µM and the “IC50 or % Inhibition Factor Xa (30 µM)” value [2] was 19%.
In the case of `N=C(N)c1ccc(CNC(=O)Cn2c(-c3ccccc3)c(Cl)nc(NCC3COc4ccccc4O3)c2=O)cc1` (stereo not drawn) [1512-01], the IC50 [1, 3] is reported as 18 µM and the “IC50 or % Inhibition Factor Xa (30 µM)” value [2] is reported as 4%.
`COc1cccc(CNc2nc(Cl)c(-c3ccccc3)n(CC(=O)NCc3ccc(C(=N)N)cc3)c2=O)c1OC` [1512-02] was tested, and the IC50 [1, 3] was 19.2 µM and the “IC50 or % Inhibition Factor Xa (30 µM)” value [2] was 3%.
`COc1ccc(CCNc2nc(Cl)c(-c3ccccc3)n(CC(=O)NCc3ccc(C(=N)N)cc3)c2=O)cc1OC` [1512-05] was tested, and the IC50 [1, 3] was 16.7 µM and the “IC50 or % Inhibition Factor Xa (30 µM)” value [2] was 10%.
With `N=C(N)c1ccc(CNC(=O)Cn2c(-c3ccccc3)c(Cl)nc(NCCCc3ccccc3)c2=O)cc1` [1512-06] the IC50 [1, 4] was 12.6 µM and the “IC50 or % Inhibition Factor Xa (30 µM)” value [2] was 4%.
With `CCOc1ccccc1CNc1nc(Cl)c(-c2ccccc2)n(CC(=O)NCc2ccc(C(=N)N)cc2)c1=O` [1512-11] the IC50 [1, 3] was 30 µM and the “IC50 or % Inhibition Factor Xa (30 µM)” value [2] was 5%.
With `CCCCC(CC)Nc1nc(Cl)c(-c2ccccc2)n(CC(=O)NCc2ccc(C(=N)N)cc2)c1=O` (stereo not drawn) [1512-12] the IC50 [1, 3] was 11.3 µM and the “IC50 or % Inhibition Factor Xa (30 µM)” value [2] was 5%.
With `CN(C)CCNc1nc(Cl)c(-c2ccccc2)n(CC(=O)NCc2ccc(C(=N)N)cc2)c1=O` [1512-15] the IC50 [1, 4] was 20.9 µM and the “IC50 or % Inhibition Factor Xa (30 µM)” value [2] was 6%.
In the case of `CC1CCCC(Nc2nc(Cl)c(-c3ccccc3)n(CC(=O)NCc3ccc(C(=N)N)cc3)c2=O)C1C` (stereo not drawn) [1512-23], the IC50 [1, 3] is reported as 14.6 µM and the “IC50 or % Inhibition Factor Xa (30 µM)” value [2] is reported as 6%.
For `N=C(N)c1ccc(CNC(=O)Cn2c(-c3ccccc3)c(Cl)nc(NCc3ccc(C(F)(F)F)cc3F)c2=O)cc1` [1512-26], the IC50 [1, 3] was 26.9 µM and the “IC50 or % Inhibition Factor Xa (30 µM)” value [2] was 5%.
For `N=C(N)c1ccc(CNC(=O)Cn2c(-c3ccccc3)c(Cl)nc(NCc3cc(C(F)(F)F)ccc3F)c2=O)cc1` [1512-27], the IC50 [1, 3] was 16.5 µM and the “IC50 or % Inhibition Factor Xa (30 µM)” value [2] was 3%.
`N=C(N)c1ccc(CNC(=O)Cn2c(-c3ccccc3)c(Cl)nc(NCc3cc(F)cc(C(F)(F)F)c3)c2=O)cc1` [1512-29] was tested, and the “IC50 or % Inhibition TF-VIIa (30 µM)” value [1] was 47% and the “IC50 or % Inhibition Factor Xa (30 µM)” value [2] was 4%.
`Cc1cccc(Cl)c1CNc1nc(Cl)c(-c2ccccc2)n(CC(=O)NCc2ccc(C(=N)N)cc2)c1=O` [1512-31] was tested, and the “IC50 or % Inhibition TF-VIIa (30 µM)” value [1] was 43% and the “IC50 or % Inhibition Factor Xa (30 µM)” value [2] was 14%.
In the case of `N=C(N)c1ccc(CNC(=O)Cn2c(-c3ccccc3)c(Cl)nc(NCc3cc(F)c(F)c(F)c3)c2=O)cc1` [1512-32], the IC50 [1, 3] is reported as 21.9 µM and the “IC50 or % Inhibition Factor Xa (30 µM)” value [2] is reported as 5%.
`N=C(N)c1ccc(CNC(=O)Cn2c(-c3ccccc3)c(Cl)nc(NCc3cc(Cl)ccc3Cl)c2=O)cc1` [1512-35] was tested, and the IC50 [1, 3] was 22.5 µM and the “IC50 or % Inhibition Factor Xa (30 µM)” value [2] was 4%.

— patent EP1202975B1, “SUBSTITUTED POLYCYCLIC ARYL AND HETEROARYL PYRAZINONES USEFUL FOR SELECTIVE INHIBITION OF THE COAGULATION CASCADE” (Pharmacia Corporation, priority 1999, dated 2000)
